Source: patent publication US20100197789A1, “ANTI-OBESITY AGENT AND USE THEREOF” (National University Corporation Nagoya University, priority 2006, published 2010)

How the values were obtained:
db/db mice [1] = experiment: Rectal temperature, oxygen consumption and motor activity, db/db mice; format: in vivo, mouse; conditions: enantiomer 1.1 mg/dl in drinking water for 5 weeks, measured at 20 o'clock for 3 days
Method: (§1) 5 week-old male C57BL/KsJ-db/db mice (db/db mice: body weight 19 to 25 g, Japan SLC, Inc.) were purchased and individually fed in tip cages. For the db/db mice, normal pellet diet (CE-2) was administered under free water intake and free food intake. A body weight and a food intake amount over 24 hours were measured everyday from the start of feeding. On day 3 after the start of feeding, blood was taken from an orbit after 6 hour-fasting and a blood glucose level and a blood insulin concentration were measured. The db/db mice were divided into three groups (10 mice per each group) so that a body weight, a 24 hour-food intake amount, a blood glucose level, and a blood insulin concentration were equal, and defined to be a control group, an R-baclofen treated group, and an S-baclofen treated group. […] After division into the groups, from day 5 after the start of feeding, R-baclofen and S-baclofen were dissolved in drinking water and 5 week-continuous oral administration was started. Both of R-baclofen and S-baclofen were dissolved in drinking water at a concentration of 1.1 mg/dl used in the low concentration treated group in the experiment of baclofen racemic mixture administration. A food intake amount and a body weight were measured over time, and a rectal temperature was measured 5 weeks after the start of the administration. Blood was taken after the 5-week administration of baclofen, and the db/db mice were sacrificed by cervical luxation.
R-baclofen and S-baclofen were administered to db/db/mice and (±)-baclofen was administered to db/^+m mice respectively for 5 weeks, and rectal temperatures were then continuously measured for 3 days at 20 o'clock immediately before the dark period when feed intake was started in the mice. The method of measuring rectal temperatures was as follows. That is, the rectal temperatures were measured by using a digital thermistor (manufactured by NATSUME SEISAKUSHO CO., LTD.).
(±)-baclofen was orally administered to db/db mice and DIO mice for 5 weeks and rectal temperatures were measured 5 weeks after the start of the administration, and oxygen consumptions and motor activity were measured by using a small animal metabolism measuring system (model MK-5000: Muromachi Kikai Co., Ltd.).

db/db mice [2] = experiment: Food intake amount and body weight, 5 week-continuous oral administration in drinking water, db/db mice; format: in vivo, mouse; conditions: enantiomer 1.1 mg/dl in drinking water, oral, 5 weeks; for body weight increase / food intake amount: vs control
Method: 5 week-old male C57BL/KsJ-db/db mice (db/db mice: body weight 19 to 25 g, Japan SLC, Inc.) were purchased and individually fed in tip cages. For the db/db mice, normal pellet diet (CE-2) was administered under free water intake and free food intake. A body weight and a food intake amount over 24 hours were measured every day from the start of feeding. On day 3 after the start of feeding, blood was taken from an orbit after 6 hour-fasting and a blood glucose level and a blood insulin concentration were measured. The db/db mice were divided into three groups (10 mice per each group) so that a body weight, a 24 hour-food intake amount, a blood glucose level, and a blood insulin concentration were equal, and defined to be a control group, a low concentration baclofen treated group, and a high concentration baclofen treated group. After division into the groups, from day 5 after the start of feeding, (±)-baclofen was dissolved in drinking water and 5 week-continuous oral administration to the baclofen treated groups was started. (±)-baclofen was dissolved in drinking water at a concentration of 1.1 mg/dl in the low concentration treated group and at a concentration of 2.7 mg/dl in the high concentration treated group. A food intake amount and a body weight were measured over time during the period of 5 week-administration of (±)-baclofen, blood was taken after the end of the 5-week administration, and the db/db mice were sacrificed by cervical luxation. Brains, epididymal white adipose tissues, subcutaneous white adipose tissues and brown adipose tissues were surgically removed. The brains and brown adipose tissues were frozen in dry ice and liquid nitrogen immediately after the removal and then preserved at −80° C. The epididymal white adipose tissues and subcutaneous white adipose tissues were measured in weights, and then fixed in 4% formaldehyde and preserved at 4° C.
as §1, with “measured.” for “measured. The db/db mice were divided into three groups (10 mice per each group) so that a body weight, a 24 hour-food intake amount, a blood glucose level, and a blood insulin concentration were equal, and defined to be a control group, an R-baclofen treated group, and an S-baclofen treated group.”, “Both of R-baclofen and S-baclofen were dissolved in drinking water at a concentration of 1.1 mg/dl used in the low concentration treated group in the experiment of baclofen racemic mixture administration.” left out
5 week-old male C57BL/KsJ-db/db mice (db/db mice: body weight 19 to 25 g, Japan SLC, Inc.) were purchased and individually fed in tip cages. Normal pellet diet (CE-2) was administered to the db/db mice under free water intake and free food intake. A body weight and a food intake amount over 24 hours were measured every day from the start of feeding. On day 3 after the start of feeding, blood was taken from an orbit after 6 hour-fasting, and a blood glucose level and a blood insulin concentration were measured. The db/db mice were divided into five groups (10 mice per each group) so that a body weight, a 24 hour-food intake amount, a blood glucose level, and a blood insulin concentration were equal, and defined to be a control group and baclofen treated groups. (±)-baclofen was dissolved in drinking water at respective concentrations of 4×10^−6 M, 10×10^−6 M, 40×10^−6 M, and 100×10^−6 M, and continuously orally administered to the baclofen treated groups for 5 weeks. A food intake amount, a body weight and a water-drinking amount were measured over time during the period of 5 week-administration of (±)-baclofen. […]

Row | SMILES | rectal temperature (db/db mice [1]) | time after start of administration from which body weight increase suppression was significant (db/db mice [2]) [weeks] | time after start of administration from which food intake suppression was significant (db/db mice [2]) [weeks] | body weight increase (db/db mice [2]) | food intake amount (db/db mice [2])
1 | Cl.NC[C@@H](CC(=O)O)c1ccc(Cl)cc1 [S-baclofen, S(−)-Baclofen hydrochloride] | significantly increased | 5 | 5 | significant suppression | significant suppression
2 | Cl.NC[C@H](CC(=O)O)c1ccc(Cl)cc1 [R-baclofen, R(+)-Baclofen hydrochloride] | significantly increased | 2 | 2 | significantly suppressed | significantly suppressed
